Measured values from BindingDB's records for doi:10.1021/jm00090a012 (National Institute of Diabetes and Digestive and Kidney …, 1992).

Columns and labels:
[1] = Binding affinity against phencyclidine (PCP) receptor from guinea pig brain, using [3H]TCP as radioligand.
[2] = Binding affinity against sigma receptor from guinea pig brain, using [3H](+)-3-PPP as radioligand.
[3] = Binding affinity against sigma receptor from guinea pig brain, using [3H](+)-pentazocine as radioligand.
[4] = molecular target: Sigma non-opioid intracellular receptor 1 (Cavia porcellus) (UniProt Q60492); assay: as above
Sequence of Sigma non-opioid intracellular receptor 1 (Cavia porcellus) (Q60492 whole entry, looked up): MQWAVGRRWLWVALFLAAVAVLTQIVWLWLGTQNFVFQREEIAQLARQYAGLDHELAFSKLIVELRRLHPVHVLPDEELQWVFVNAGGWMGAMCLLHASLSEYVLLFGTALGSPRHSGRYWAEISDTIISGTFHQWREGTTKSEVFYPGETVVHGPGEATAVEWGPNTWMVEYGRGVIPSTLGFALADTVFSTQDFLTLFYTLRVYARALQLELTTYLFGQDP

With `CCCCCN1CC[C@@]2(C)c3cc(O)ccc3CC1[C@H]2C` [(6R,11S)-6,11-Dimethyl-3-pentyl-1,2,3,4,5,6-hexahydro-2,6-methano-benzo[d]azocin-8-ol] the Ki [1] was 9040 nM.

With `Clc1ccc(CCN2CCN(CCCI)CC2)cc1Cl` the Ki [2] was 1.3 nM and the Ki [3] was 1.2 nM.

`FCCCCCN1CCN(CCc2ccc(Cl)c(Cl)c2)CC1` showed a Ki [2] of 0.86 nM and a Ki [3] of 0.52 nM.

`FCCCN(CCc1ccc(Cl)c(Cl)c1)CCN1CCCC1` showed a Ki [2] of 4.22 nM.

`FCCCN1CCN(CCc2ccc(Cl)c(Cl)c2)CC1` showed a Ki [4] of 0.39 nM.
